How the values were obtained:
Format in all cases: cell-based
[1] = test system: normal colon epithelial cells (FHC); test: Cell cycle analysis (BrdU/7-AAD flow cytometry) in normal cells; details: 5-FU 10 μM, 48 hours
Experimental: (§1) To observe cell cycle changes, normal colon epithelial cells (FHC) and human colon cancer cell line DLD1 were treated with compound 1-91 at 2 μM and the positive control 5-FU at 10 μM. After 48 hours, the cells were washed with PBS, harvested, and sequentially treated with bromodeoxyuridine (BrdU) and 7-aminoactinomycin D (7-AAD). The cells were then stained with an anti-BrdU antibody conjugated with fluorescein isothiocyanate (FITC) and analyzed using a flow cytometer.

[2] = test system: human colon cancer cell line (DLD1); test: Apoptosis (annexin V-FITC) in cancer cells; details: DLD1, 5-FU 10 μM, 48 hours
Experimental: (§2) To observe changes in apoptosis, normal colon epithelial cells (FHC) and human colon cancer cell line (DLD1) were treated with compound 1-91 at 2 μM and the positive control 5-FU at 10 μM. After 48 hours, the cells were washed with PBS, harvested, and analyzed for apoptosis using an annexin V-FITC apoptosis detection kit.

[3] = test system: normal colon epithelial cells (FHC); test: Apoptosis (annexin V-FITC) in normal cells; details: 5-FU 10 μM, 48 hours
Experimental: as §2

[4] = test system: human colon cancer cell line DLD1; test: Cell cycle analysis (BrdU/7-AAD flow cytometry) in cancer cells; details: DLD1, 5-FU 10 μM, 48 hours
Experimental: as §1

O=c1[nH]cc(F)c(=O)[nH]1 [Example 5-FU, reference compound]
cell cycle arrest, normal cells [1]: arrested the cell cycle at the G0/G1 phase in normal cells
apoptosis, cancer cells [2]: induced apoptosis in both normal and cancer cells
apoptosis, normal cells [3]: induced apoptosis in both normal and cancer cells
cell cycle arrest, cancer cells [4]: at the Sub G1 phase in cancer cells
